The text below walks through data of US5569471A, “Medicine for the treatment of tumor” (priority 1993, dated 1996).

“Also recorded” adds a separate entry of the source.

One data set in a line: Toxicity test. As to conditions: in vivo; species and route not given. The method, then:
The LD50 value of 4-piperidino-piperidine is about 200 to 300 mg/kg. Therefore, ordinary dose will not cause any risk.

Data set [1] has as its system T-cells derived from human acute leukemia (RPMI-8402, T-ALL cells). Briefly: Test for confirming the inhibitory effect on tumor cell propagation (6-day culture, counting of lethal and propagated cells). The following applies: 2.5, 12.5, 25, 50, 80 and 100 μg/ml, FIG. 1. The data set is classed as cell-based. As for the experimental part: To samples of T-cells derived from human acute leukemia (RPMI-8402, T-ALL cells, see Minowada, J. and Moore, G. E., In Comparative Leukemia Research, Eds. Ito, Y. and Dutcher, R. M., Univ. Tokyo Press, Tokyo, pp. 251-261, 1975), 4-piperidino-piperidine (4-PP) in various concentrations was added (0, 2.5, 12.5, 25, 50, 80 and 100 μg/ml). After a 6-day culture, lethal cells and propagated cells were counted.

Data set [2] concerns cisplatin-resistant human myeloid leukemia cells (K-562). As to the kind of experiment: Test for confirming the resistance dissolving effect, cisplatin-resistant cells. In kind it is cell-based. The following applies: FIG. 2; for cell killing effect, single dose: 4-piperidino-piperidine 2.5 μg/ml alone, cisplatin 1 alone, vs control. An excerpt: As drug-fast cells, two kinds of human myeloid leukemia cells (K-562) which had acquired drug resistance against adriamycin (ADR) and cisplatin were used (see Kaoru MIURA, et al., "NK and LAK cell sensitivity and HLA expression" 51st Conference of Japan Cancer Association, page 252, 1992; and Nobutaka IMAIZUMI, Yoichiro KUSUKI, Chie KAWACHI, et al., "Establishing adriamycin-resistant strains and review on the mechanism of resistance", Oncologoa, 21, 89-94, 1988). In the test, adriamycin (ADR), cisplatin, and 4-piperidino-piperidine were dosed singly or in combination against the two kinds of the drug-fast cells, and the number of the lethal cells were counted.

In data set [3] the test system is T-ALL cells. Briefly: Test for confirming the effect of enhancing antitumor activity by a simultaneous dosage, T-ALL cells. In kind it is cell-based, human. The following applies: 4-piperidino-piperidine 2.5 μg/ml simultaneously, FIG. 4. The method, then:
(§1) The numbers of the lethal cells were counted in cases where 4-piperidino-piperidine (2.5 μg/ml) and each of the ten kinds of the antitumor drugs listed in Table 3 were simultaneously dosed (in small amounts and large amounts for each drug), and where the ten kinds of the antitumor drugs were independently and singly dosed (in small amounts and large amounts for each drug).
(§2) The procedure of Example 9 was repeated by using human myeloblastic leukemia cells (K-562) in place of the T-ALL cells.

For data set [4], the system named is T-ALL cells. Briefly: Test for confirming the effect of enhancing antitumor activity by successive dosage. The following applies: FIG. 3. In kind it is cell-based, human. The method, then: The tumor cell killing effect was investigated by successively administering 4-piperidino-piperidine and an antitumor drug to T-ALL cells.
First, T-ALL cells were cultured in a plurality of culture media containing 4-piperidino-piperidine at different concentrations (2.5, 12.5, 25 and 50 μg/ml) for 6 days. […] The results are shown in FIG. 3, which employes a relative expression where the number of lethal cells in the standard cell groups was taken as 100% (shown by a horizontal perforated line). The numbers 1, 2, 3 and 4 given for each drug indicate that the concentration of 4-piperidino-piperidine used for the culture is 2.5, 12.5, 25 and 50 μg/ml, respectively.

The subject of data set [5] is human myeloblastic leukemia cells (K-562). As to the kind of experiment: Test for confirming the effect of enhancing antitumor activity by a simultaneous dosage, K-562 cells. In kind it is cell-based. As to conditions: 4-piperidino-piperidine 2.5 μg/ml simultaneously; drug doses of Table 3; FIG. 5. The method, then: as §1, §2
Where [6] appears, read: both drug concentrations (DNR 0.01/0.05, ACR 0.05/0.1, 5-FU 5/10 μg/ml).
Setting [7] is: 4-piperidino-piperidine precedently dosed at 12.5, 25 and 50 μg/ml, DNR 0.05, 5-FU 10 μg/ml.
The mark [8] stands for this setting: 4-piperidino-piperidine precedently dosed, all concentration groups (2.5, 12.5, 25 and 50 μg/ml), ACR 0.05, MTX 0.01 μg/ml.
Setting [9] is: in the concentration of 0.05 μg/ml.

What is called LD50 is the dose at which mortality reaches 50%. `C1CCN(C2CCNCC2)CC1` [4-piperidino-piperidine] showed an LD50 in “Toxicity test” of 200 to 300 mg/kg. Besides, the “number of propagated cells” value in data set [1] was “decreased in a dose-dependent manner”. Also, the “number of lethal cells (tumor cell killing effect)” value in data set [1] (vs control) was “does not have tumor cell killing effect per se; also recorded: not significantly different from the count of the control group”. Moreover, the “cell killing effect, single dose” value in data set [2] is reported as “almost the same cell killing effect as that of the control group”. Besides, the “cell killing effect, simultaneous dose (resistance dissolving)” value in data set [2] (cisplatin and 4-piperidino-piperidine simultaneously dosed, compared with each dosed singly) is reported as “significantly enhanced”.

`O=c1[nH]cc(F)c(=O)[nH]1` [5-FU, 5-Fluorouracil]: the “enhancement of antitumor activity by combined use with 4-piperidino-piperidine” value (shortened to “enhancement of antitumor activity”) in the data set with T-ALL cells [3] (setting [6]) is given as “enhanced”. The “enhancement of antitumor drug effect (lethal cells relative to standard cells)” value in the data set on T-ALL cells [4] (setting [7]) is given as “enhanced effects”.

Take `CCC1(O)CC(OC2CC(N(C)C)C(OC3CC(O)C(OC4CCC(=O)C(C)O4)C(C)O3)C(C)O2)c2c(cc3c(c2O)C(=O)c2c(O)cccc2C3=O)C1C(=O)OC` (stereo not shown) [ACR]: in the data set with T-ALL cells [3] (setting [6]), the “enhancement of antitumor activity” value is reported as “enhanced”. Moreover, in the data set with T-ALL cells [4] (setting [8]), the “enhancement of antitumor drug effect (lethal cells relative to standard cells)” value is given as “enhanced effects”.

For `COc1cccc2c1C(=O)c1c(O)c3c(c(O)c1C2=O)C[C@@](O)(C(=O)CO)C[C@@H]3O[C@H]1C[C@H](N)[C@H](O)[C@H](C)O1` [ADR], the “enhancement of antitumor activity” value (in data set [5]; in the data set on T-ALL cells [3] (setting [9])) was “enhanced” throughout.

`CCc1c2c(nc3ccc(OC(=O)N4CCC(N5CCCCC5)CC4)cc13)-c1cc3c(c(=O)n1C2)COC(=O)[C@]3(O)CC` [CPT-11, 7-Ethyl-10-piperidino-piperidinocarboxycamptothecin]: in the data set on T-ALL cells [4] (4-piperidino-piperidine precedently dosed at 25 and 50 μg/ml, CPT-11 10 μg/ml), the “enhancement of antitumor drug effect (lethal cells relative to standard cells)” value is recorded as “enhanced”.

In the case of `COc1cccc2c1C(=O)c1c(O)c3c(c(O)c1C2=O)C[C@@](O)(C(C)=O)C[C@@H]3O[C@H]1C[C@H](N)[C@H](O)[C@H](C)O1` [DNR], the “enhancement of antitumor activity” value (in data set [5]; with T-ALL cells [3] (setting [6])) was “enhanced” throughout. In addition, the “enhancement of antitumor drug effect (lethal cells relative to standard cells)” value in the data set on T-ALL cells [4] (setting [7]) was “enhanced effects”.

For the molecule `CN(Cc1cnc2nc(N)nc(N)c2n1)c1ccc(C(=O)N[C@@H](CCC(=O)O)C(=O)O)cc1` [MTX], in data set [5], the “enhancement of antitumor activity” value is “enhanced”. In the data set on T-ALL cells [4] (setting [8]), the “enhancement of antitumor drug effect (lethal cells relative to standard cells)” value is “enhanced effects”.

In the case of `O=C1c2c(O)ccc(O)c2C(=O)c2c(NCCNCCO)ccc(NCCNCCO)c21` [Mitoxantrone], the “enhancement of antitumor activity” value in data set [5] is listed as “enhanced”. The “enhancement of antitumor drug effect (lethal cells relative to standard cells)” value with T-ALL cells [4] (4-piperidino-piperidine precedently dosed at 2.5 and 50 μg/ml, mitoxantrone 0.05 μg/ml) is recorded as “enhanced effects”.

On to `CC[C@]1(O)C[C@H]2CN(CCc3c([nH]c4ccccc34)[C@@](C(=O)OC)(c3cc4c(cc3OC)N(C=O)[C@H]3[C@@](O)(C(=O)OC)[C@H](OC(C)=O)[C@]5(CC)C=CCN6CC[C@]43[C@@H]65)C2)C1` [VCR], for which, in data set [5], the “enhancement of antitumor activity” value was “enhanced”.

On to `CC[C@]1(O)C[C@@H]2CN(CCc3c([nH]c4ccccc34)[C@@](C(=O)OC)(c3cc4c(cc3OC)N(C)[C@H]3[C@@](O)(C(N)=O)[C@H](O)[C@]5(CC)C=CCN6CC[C@]43[C@@H]65)C2)C1` [VDS], for which the “enhancement of antitumor activity” value (in data set [5]; in the data set with T-ALL cells [3] (setting [9])) was “enhanced” each time.

For `N.N.[Cl][Pt][Cl]` [cisplatin], the “cell killing effect, single dose” value in data set [2] is listed as “almost the same cell killing effect as that of the control group”. In data set [5], the “enhancement of antitumor activity” value was “enhanced”.

On to `COc1cc([C@@H]2c3cc4c(cc3[C@@H](O[C@@H]3O[C@@H]5CO[C@@H](C)O[C@H]5[C@H](O)[C@H]3O)[C@H]3COC(=O)[C@H]23)OCO4)cc(OC)c1O` [etoposide], for which the “enhancement of antitumor activity” value in data set [5] is reported as “enhanced”.
